Measurements published in ChEMBL document CHEMBL1201862, “PubChem BioAssay data set” (2004).
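Dose response: 5 concentrations. Exposure: 48 h. Format: 96-well plates. Endpoint: linear interpolation; highest concentration if not reached. At the GI50, growth is halved.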 Active and inactive are the calls of the source. No stated cut-off is given here; in the data, active = GI50 up to about 1.1 µM and inactive = higher.

How the values were obtained:
Assay in all cases: growth of human tumour cells (NCI), 48 h
[1] = test system: OVCAR-8
[2] = test system: Hs-578T
[3] = test system: K562
[4] = test system: UACC-257
[5] = test system: SR
[6] = test system: SF-295
[7] = test system: EKVX
[8] = test system: IGROV-1
[9] = test system: MDA-MB-435
[10] = test system: NCI-H522
[11] = test system: SN12C
[12] = test system: HOP-62
[13] = test system: SW-620
[14] = test system: NCI/ADR-RES
[15] = test system: HCT-15
[16] = test system: KM12
[17] = test system: A549
[18] = test system: SF-268
[19] = test system: COLO 205
[20] = test system: OVCAR-4

Row | Compound | GI50 [1] | GI50 [2] | GI50 [3] | GI50 [4] | GI50 [5] | GI50 [6] | GI50 [7] | GI50 [8] | GI50 [9] | GI50 [10] | GI50 [11] | GI50 [12] | GI50 [13] | GI50 [14] | GI50 [15] [µM] | GI50 [16] | GI50 [17] | GI50 [18] | GI50 [19] | GI50 [20]
1 | CC(=O)NNc1nc(C)c(C(/C=C/c2ccc([N+](=O)[O-])cc2)=N/N)s1 | > 100 µM (inactive) | > 100 µM (inactive) | 55.5 µM (inactive) | 88.1 µM (inactive) | 37.7 µM (inactive) | > 100 µM (inactive) | 94.4 µM (inactive) | 54 µM (inactive) | > 100 µM (inactive) | > 100 µM (inactive) | 84.5 µM (inactive) | 68.1 µM (inactive) | > 100 µM (inactive) | > 100 µM (inactive) | > 100 | > 100 µM (inactive) | > 100 µM (inactive) | > 100 µM (inactive) | > 100 µM (inactive) | > 100 µM (inactive)
2 | O=C(CCCl)NN=C1NCCN1 | > 100 µM (inactive) | > 100 µM (inactive) | > 100 µM (inactive) | > 100 µM (inactive) | > 100 µM (inactive) | > 100 µM (inactive) | > 100 µM (inactive) | > 100 µM (inactive) | > 100 µM (inactive) | > 100 µM (inactive) | > 100 µM (inactive) | > 100 µM (inactive) | > 100 µM (inactive) | > 100 µM (inactive) | > 100 | > 100 µM (inactive) | > 100 µM (inactive) | > 100 µM (inactive) | > 100 µM (inactive) | > 100 µM (inactive)
3 | C[C@]12CC[C@H](O)CC1=CC[C@@H]1[C@@H]2CC[C@]2(C)C(=N/O)/C(=C/c3ccc([N+](=O)[O-])cc3)C[C@@H]12 | 2.82 µM (inactive) | 12.1 µM (inactive) | 3.3 µM (inactive) | 3.65 µM (inactive) | 2.51 µM (inactive) | 0.45 µM (active) | 2.59 µM (inactive) | 7.48 µM (inactive) | 8.38 µM (inactive) | 3.18 µM (inactive) | 3.08 µM (inactive) | 0.619 µM (active) | 9.86 µM (inactive) | 6.03 µM (inactive) | 4.78 | 0.841 µM (active) | 0.782 µM (active) | 10.9 µM (inactive) | 3.53 µM (inactive) | 5.33 µM (inactive)
4 | CCC(CC)C(=O)OC[n+]1cccc(-c2c(COC(=O)NC(C)C)c(COC(=O)NC(C)C)c3n2CCC3)c1 | > 100 µM (inactive) | 50.7 µM (inactive) | 97.5 µM (inactive) | > 100 µM (inactive) | 5.87 µM (inactive) | > 100 µM (inactive) | > 100 µM (inactive) | > 100 µM (inactive) | > 100 µM (inactive) | 56.2 µM (inactive) | 58.2 µM (inactive) | 43.4 µM (inactive) | > 100 µM (inactive) | 63.2 µM (inactive) | > 100 | > 100 µM (inactive) | > 100 µM (inactive) | 62.8 µM (inactive) | > 100 µM (inactive) | > 100 µM (inactive)
5 | C[C@]12OC(=O)[C@]3(O)CC[C@H]4[C@@H](C[C@@H](O)[C@@]5(Cl)CC=CC(=O)[C@]45C)[C@]45OCC6C(=O)O[C@@H]1C[C@@]6(C)[C@H](C4=O)[C@@]32O5 (stereo not given in full) | 1.41 µM (inactive) | 6.44 µM (inactive) | 0.469 µM (active) | 2.01 µM (inactive) | 0.811 µM (active) | 3.05 µM (inactive) | 1.24 µM (inactive) | 1 µM (active) | 2 µM (inactive) | 0.16 µM (active) | 1.86 µM (inactive) | 2.78 µM (inactive) | 0.494 µM (active) | 2.6 µM (inactive) | 1.46 | 2.15 µM (inactive) | 3.37 µM (inactive) | 0.767 µM (active) | 0.867 µM (active) | 3.78 µM (inactive)
6 | Nc1ncnc2c1ncn2[C@H]1C=C[C@@H](NO)C1 | > 100 µM (inactive) | > 100 µM (inactive) | > 100 µM (inactive) | > 100 µM (inactive) | > 100 µM (inactive) | > 100 µM (inactive) | > 100 µM (inactive) | > 100 µM (inactive) | > 100 µM (inactive) | > 100 µM (inactive) | > 100 µM (inactive) | > 100 µM (inactive) | > 100 µM (inactive) | > 100 µM (inactive) | > 100 | > 100 µM (inactive) | > 100 µM (inactive) | > 100 µM (inactive) | > 100 µM (inactive) | > 100 µM (inactive)
7 | CN(C)c1ccc2nc3c(C(=O)O)cc(O)c(O)c3[o+]c2c1 | 41 µM (inactive) | 68.4 µM (inactive) | 22.4 µM (inactive) | 14.8 µM (inactive) | 17.5 µM (inactive) | > 100 µM (inactive) | 26.4 µM (inactive) | 92.3 µM (inactive) | 21.2 µM (inactive) | 5.48 µM (inactive) | 20.2 µM (inactive) | 52.8 µM (inactive) | 31 µM (inactive) | 28.7 µM (inactive) | 37.5 | 26.9 µM (inactive) | > 100 µM (inactive) | 41.5 µM (inactive) | 24.7 µM (inactive) | 29 µM (inactive)
